Data from US5968907A (priority 1997, dated 1999).

Experiments:
[1] = target: heat-labile enterotoxin from E. coli (Escherichia coli, UniProt P0CK94); type: binding; conditions: at the concentration employed in the assay
CFA I pili = CFA I pili (Escherichia coli, UniProt P0CK93+P25734); experiment: biochemical; conditions: read-out: inhibition of CFA I pili binding to glycophorin
cholera toxin = cholera toxin (Vibrio cholerae serotype O1, UniProt P01556); experiment: biochemical; conditions: read-out: inhibition of binding of cholera toxin to ganglioside GD1b
cholera toxin, sequence (P01556 22-124 limits assumed): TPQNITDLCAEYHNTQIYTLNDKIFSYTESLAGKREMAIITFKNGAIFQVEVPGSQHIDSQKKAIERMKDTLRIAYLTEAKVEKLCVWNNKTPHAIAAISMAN

CFA I pili, sequence (P0CK93 24-170): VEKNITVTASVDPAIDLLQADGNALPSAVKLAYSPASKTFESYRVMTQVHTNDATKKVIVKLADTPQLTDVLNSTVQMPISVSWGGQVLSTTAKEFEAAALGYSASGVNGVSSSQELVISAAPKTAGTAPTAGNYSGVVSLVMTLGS
CFA I pili, sequence (P25734 23-360): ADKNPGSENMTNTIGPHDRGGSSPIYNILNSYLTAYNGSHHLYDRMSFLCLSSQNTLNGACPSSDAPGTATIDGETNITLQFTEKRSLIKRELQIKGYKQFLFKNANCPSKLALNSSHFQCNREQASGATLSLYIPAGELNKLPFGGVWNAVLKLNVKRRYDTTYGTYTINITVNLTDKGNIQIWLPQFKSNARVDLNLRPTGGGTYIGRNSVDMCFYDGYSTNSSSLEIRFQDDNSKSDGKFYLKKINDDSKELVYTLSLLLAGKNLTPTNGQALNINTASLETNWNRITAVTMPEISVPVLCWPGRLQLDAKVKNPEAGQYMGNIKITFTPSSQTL
heat-labile enterotoxin from E. coli, sequence (P0CK94 whole entry, looked up): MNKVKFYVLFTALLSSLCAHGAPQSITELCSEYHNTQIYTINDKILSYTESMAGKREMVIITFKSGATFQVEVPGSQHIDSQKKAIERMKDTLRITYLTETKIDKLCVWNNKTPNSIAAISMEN

SMILES | inhibition of binding of heat-labile enterotoxin to ganglioside GD1b [1] | inhibition at 1000 µg/mL (CFA I pili) | inhibition at 1000 µg/mL (cholera toxin)
NC1CCCCC1S[C@@H]1O[C@H](CO)[C@H](O)[C@H](O)[C@H]1O (stereo partly drawn) [Example B2, 2-Aminocyclohex-1-yl 1-Thio-β-D-galactopyranoside] | at least 20% | 13 to 71% | –
NC1CCCCC(S[C@@H]2O[C@H](CO)[C@H](O)[C@H](O)[C@H]2O)C1 (stereo partly drawn) [Example B5, 3-Aminocyclohept-1-yl 1-Thio-β-D-galactopyranoside] | – | 13 to 71% | –
O=C(O)CCNC1CCCC(S[C@@H]2O[C@H](CO)[C@H](O)[C@H](O)[C@H]2O)C1 (stereo partly drawn) [Example F10, Nβ-[3-(1-Thio-β-D-galactopyranosyl)cyclohex-1-yl]-β-alanine] | at least 20% | – | < 20%
CC(C)C[C@H](NC1CCCCC1S[C@@H]1O[C@H](CO)[C@H](O)[C@H](O)[C@H]1O)C(=O)O (stereo partly drawn) [Example G2, Nα-[2-(1-Thio-β-D-galactopyranosyl)cyclohex-1-yl]-L-leucine] | < 20% | – | ≥ 20%
CC(C)C[C@H](NC1CCCCC(S[C@@H]2O[C@H](CO)[C@H](O)[C@H](O)[C@H]2O)C1)C(=O)O (stereo partly drawn) [Example G5, Nα-[1-(1-Thio-β-D-galactopyranosyl)cyclohept-3-yl]-L,Ieucine] | at least 20% | – | ≥ 20%
O=C(O)[C@H](Cc1c[nH]cn1)NC1CCCCC1S[C@@H]1O[C@H](CO)[C@H](O)[C@H](O)[C@H]1O (stereo partly drawn) [Example H2, Nα-[2-(1-Thio-β-D-galactopyranosyl)cyclohex-1-yl]-L-histidine] | – | 13 to 71% | < 20%
CC(CC(S[C@@H]1O[C@H](CO)[C@H](O)[C@H](O)[C@H]1O)c1ccccc1)N[C@@H](Cc1c[nH]cn1)C(=O)O (stereo partly drawn) [Example H3, Nα-[4-Phenyl-4-(1-thio-β-D-galactopyranosyl)but-2-yl]-L-histidine] | – | 13 to 71% | ≥ 20%
O=C(O)[C@H](Cc1c[nH]cn1)NC1CCCCC(S[C@@H]2O[C@H](CO)[C@H](O)[C@H](O)[C@H]2O)C1 (stereo partly drawn) [Example H5, Nα-[3-(1-Thio-β-D-galactopyranosyl)cyclohept-1-yl]-L-histidine] | – | 13 to 71% | < 20%
CC1(C)CC(N[C@@H](Cc2c[nH]cn2)C(=O)O)CC1S[C@@H]1O[C@H](CO)[C@H](O)[C@H](O)[C@H]1O (stereo partly drawn) [Example H6, Nα-[4,4-Dimethyl-3-(1-thio-β-D-galactopyranosyl)-cyclopent-1-yl]-L-histidine] | – | 13 to 71% | –
O=C(O)[C@H](Cc1c[nH]cn1)NC1CCC(S[C@@H]2O[C@H](CO)[C@H](O)[C@H](O)[C@H]2O)C1 (stereo partly drawn) [Example H7, Nα-[3-(1-Thio-β-D-galactopyranosyl)cyclopent-1-yl]-L-histidine] | – | 13 to 71% | –
CC(CC(C)S[C@@H]1O[C@H](CO)[C@H](O)[C@H](O)[C@H]1O)N[C@@H](Cc1c[nH]cn1)C(=O)O (stereo partly drawn) [Example H8, Nα-[4-(1-Thio-β-D-galactopyranosyl)pent-2-yl]-L-histidine] | – | 13 to 71% | < 20%
CC1(C)CCC(N[C@@H](Cc2c[nH]cn2)C(=O)O)CC1S[C@@H]1O[C@H](CO)[C@H](O)[C@H](O)[C@H]1O (stereo partly drawn) [Example H9, Nα-[4,4-Dimethyl-3-(1-thio-β-D-galactopyranosyl)-cyclohex-1-yl]-L-histidine] | – | 13 to 71% | < 20%
O=C(O)[C@H](Cc1c[nH]cn1)NC1CCCC(S[C@@H]2O[C@H](CO)[C@H](O)[C@H](O)[C@H]2O)C1 (stereo partly drawn) [Example H10, Nα-[3-(1-Thio-β-D-galactopyranosyl)cyclohex-1-yl]-L-histidine] | – | 13 to 71% | < 20%
O=C(O)[C@H](Cc1c[nH]c2ccccc12)NC1CCCC1S[C@@H]1O[C@H](CO)[C@H](O)[C@H](O)[C@H]1O (stereo partly drawn) [Example I1, Nα-[2-(1-Thio-β-D-galactopyranosyl)cyclopent-1-yl]-L-tryptophan] | – | 13 to 71% | ≥ 20%
O=C(O)[C@H](Cc1c[nH]c2ccccc12)NC1CCCCC1S[C@@H]1O[C@H](CO)[C@H](O)[C@H](O)[C@H]1O (stereo partly drawn) [Example I2, Nα-[2-(1-Thio-β-D-galactopyranosyl)cyclohex-1-yl]-L-tryptophan] | at least 20% | 13 to 71% | < 20%
O=C(O)[C@H](Cc1c[nH]c2ccccc12)NC1CCCCC(S[C@@H]2O[C@H](CO)[C@H](O)[C@H](O)[C@H]2O)C1 (stereo partly drawn) [Example I5, Nα-[3-(1-Thio-β-D-galactopyranosyl)cyclohept-1-yl]-L-tryptophan] | at least 20% | – | ≥ 20%
N=C(N)NCCC[C@H](NC1CCC(S[C@@H]2O[C@H](CO)[C@H](O)[C@H](O)[C@H]2O)C1)C(=O)O (stereo partly drawn) [Example J7, Nα-[3-(1-Thio-β-D-galactopyranosyl)cyclopent-1-yl]-L-arginine] | at least 20% | – | < 20%
CC1(C)CCC(N[C@@H](CCCNC(=N)N)C(=O)O)CC1S[C@@H]1O[C@H](CO)[C@H](O)[C@H](O)[C@H]1O (stereo partly drawn) [Example J9, Nα-[4,4-Dimethyl-3-(1-thio-β-D-galactopyranosyl)-cyclohex-1-yl]-L-arginine] | – | 13 to 71% | < 20%
